Measurements reported in patent US20130253202A1, “METHOD OF TREATING HEMATOLOGICAL CANCERS” (Niiki Pharma Inc., priority 2010, published 2013).

Legend:
MV4-11 cells [1] = conditions: Colado et al. 2008, Scatena et al. 2010; cited from earlier work
WSU-DLCL2 cells [2] = conditions: Aref et al. 1999, Levi et al. 2010; cited from earlier work
MV4-11 cells [3] = test: Anti-proliferation assay (Cell Titer-Glo) in MV4-11 human leukemia cells; assay type: cell-based
Experimental: The human leukemia cell line MV4-11 cells [biphenotypic B myelomonocytic leukemia, lymphoblast morphology] were placed in a 96-well microculture plate (Costar white, flat bottom #3917) in a total volume of 90 μL/well. After 24 hours of incubation in a humidified incubator at 37° C. with 5% CO2 and 95% air, 10 μL of 10X, serially diluted sodium trans-[tetrachlorobis(1H-indazole)ruthenate(III)] in growth medium was added to each well. After 96 total hours of culture in a CO2 incubator, the plated cells and Cell Titer-Glo (Promega #G7571) reagents were brought to room temperature to equilibrate for 30 minutes. 100 μL of Cell Titer-Glo® reagent was added to each well. The plate was shaken for 2 minutes and then left to equilibrate for 10 minutes before reading luminescence on the Tecan GENios microplate reader. Percent inhibition of cell growth was calculated relative to untreated control wells. All tests were performed in duplicate at each concentration level. The IC50 value for the test agent was estimated using Prism 3.03 by curve-fitting the data using the following four parameter-logistic equation: […]

Granta 519 cells = test: Anti-proliferation assay (Cell Titer-Glo) in Granta 519 mantle cell lymphoma cells; assay type: cell-based, human; conditions: 96 total hours of culture, read-out: IC50 in Granta 519 (inhibition of cell growth)
Experimental: (§1) To determine the antiproliferative activity of sodium trans-[tetrachlorobis(1H-indazole)ruthenate(III)] in human lymphoma tumor cell lines, anti-proliferation assays were conducted in the DoHH2 (follicular lymphoma), Granta 519 (mantle cell lymphoma), and WSU-DLCL2 (diffuse large B cell lymphoma) cell lines. The DoHH2 Human EBV-negative B Cell Lymphoma cells were seeded with 5,000 cells/well and grown in RPMI1640 medium containing 20% FBS, and 2mM L-Glutamine. The Granta 519 Human Mantle Cell Lymphoma cells were seeded with 10,000 cells/well and grown in DMEM medium containing 10% FBS, and 2 mM L-Glutamine. The WSU-DLCL2 Human B Cell Lymphoma cells were seeded with 5,000 cells/well and grown in RPMI1640 medium containing 10% FBS, and 2mM L-Glutamine. Specifically, the human tumor cells were placed in a 96-well microculture plate at the appropriate density for 96 hours of total growth time. After 24 hours of incubation in a humidified incubator at 37° C. with 5% CO2 and 95% air, serially diluted test agents in growth medium were added to each well. After 96 total hours of culture in a CO2 incubator, the plates were processed with Cell Titer-Glo (Promega #G7571) according to manufacturer's instructions. Luminescence was detected using a Tecan GENios microplate reader. Percent inhibition of cell growth was calculated relative to untreated control wells. […]

WSU-DLCL2 cells [4] = test: Anti-proliferation assay (Cell Titer-Glo) in WSU-DLCL2 diffuse large B cell lymphoma cells; assay type: cell-based, human; conditions: 96 total hours of culture, read-out: IC50 in WSU-DLCL2 (inhibition of cell growth)
Experimental: as §1

DoHH2 cells = test: Anti-proliferation assay (Cell Titer-Glo) in DoHH2 follicular lymphoma cells; assay type: cell-based, human; conditions: 96 total hours of culture, read-out: IC50 in DoHH2 (inhibition of cell growth)
Experimental: as §1

COc1cccc2c1C(=O)c1c(O)c3c(c(O)c1C2=O)C[C@@](O)(C(=O)CO)C[C@@H]3O[C@H]1C[C@H](N)[C@H](O)[C@H](C)O1 [doxorubicin]
resistance of MV4-11 cells to the drug (MV4-11 cells [1]): resistant
resistance of WSU-DLCL2 cells to the drug (WSU-DLCL2 cells [2]): resistant

Nc1ccn([C@@H]2O[C@H](CO)[C@@H](O)[C@@H]2O)c(=O)n1 [Ara-C, cytarabine]
resistance of MV4-11 cells to the drug (MV4-11 cells [1]): resistant

N[C@@H](Cc1ccc(N(CCCl)CCCl)cc1)C(=O)O [melphalan]
resistance of WSU-DLCL2 cells to the drug (WSU-DLCL2 cells [2]): resistant

[Cl][Ru-]([Cl])([Cl])[Cl].[Na+].c1ccc2[nH]ncc2c1.c1ccc2[nH]ncc2c1 [sodium trans-[tetrachlorobis(1H-indazole)ruthenate(III)]]
IC50 (MV4-11 cells [3]; 96 total hours of culture, compound added after 24 hours, Cell Titer-Glo, read-out: IC50 on MV4-11 (inhibition of cell growth)): 8.53 µM
inhibition of proliferation of MV4-11 cells (FIG. 1), dose-dependent maximum (MV4-11 cells [3]; exposure time 24 hours, % of control): up to 100%
IC50 (Granta 519 cells): 63.6 µM
IC50 (WSU-DLCL2 cells [4]): 25 µM
IC50 (DoHH2 cells): 7.18 µM
